The values below come from patent US20060147348A1, “Sampling device and methods” (priority 2004, published 2006).

Like-named read-outs stand apart in the source and are kept apart here.

The series in a line: Retention of THC in the mouth after smoking marijuana: THC in saliva and tongue mucus by quantitative GC/MS. The class given is in vivo, human. The note with it: for concentration at 5 min / concentration at 2 h / concentration at 6 h / concentration at 24 h: human, inhaled; for concentration at 5 min: 5 minutes post smoking 0.2 g of marijuana; for concentration at 2 h: 2 hours post smoking 0.2 g of marijuana; for concentration at 6 h: 6 hours post smoking 0.2 g of marijuana; for concentration at 24 h: 24 hours post smoking 0.2 g of marijuana. An excerpt: 0.2 grams (g) of marijuana was smoked by a test subject. Mucosal surface samples and saliva were collected at different time intervals by scraping the top side of the tongue a polypropylene card having a width×length×thickness of about 2 inches×about 3 inches×about 0.04 inches, using the about 2 inch edge of the card as an abrasive. The mucus specimens were dripped into a glass vial for further analysis. Saliva specimens were collected at the same times by directly expectorating saliva into glass vials.
The specimens were analyzed by a quantitative GC/MS method for the detection of THC.

Where [1] appears, read: saliva (expectorated), read-out: THC Concentration, Saliva.
Where [2] appears, read: tongue mucus (mucosal scrapings), mucosal scrapings from the top of the tongue, read-out: THC Concentration, Mucus.

Turning to `CCCCCc1cc(O)c2c(c1)OC(C)(C)[C@@H]1CCC(C)=C[C@@H]21` [THC, Tetrahydrocannabinol], under setting [1], the concentration at 5 min is 0.115 µg/mL, the concentration at 2 h was 0.016 µg/mL, the concentration at 6 h stood at 0.011 µg/mL and the concentration at 24 h came out at 0.0021 µg/mL. Under setting [2], the concentration at 5 min came to 0.587 µg/mL, the concentration at 2 h turned out to be 0.412 µg/mL, the concentration at 6 h was determined as 0.123 µg/mL and the concentration at 24 h amounted to 0.044 µg/mL. Moreover, the “Retention of THC in mucus specimen compared with saliva” value (mucus vs saliva, 5 minutes to 24 hours after smoking 0.2 g of marijuana) is “significantly higher concentration and for longer time than in saliva”.
